What was measured:
Goosegrass = assay: Test C pre-/postemergence test; format: in vivo, Eleusin indica; conditions: for Plant response rating, Goosegrass: 31 g ai/ha, scale 0 to 100 (0 no effect, 100 complete control)
Method in brief: (§1)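 Test chemicals were formulated with surfactant in a non-phytotoxic solvent and sprayed both on freshly planted seeds (preemergence) and on 1- to 4-leaf plants of 2–18 cm (postemergence). Flooded-paddy pots received compound directly into 3 cm of standing water, maintained for the test.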

crabgrass = assay: Test A pre-/postemergence greenhouse test; format: in vivo, Digitaria sanguinalis; conditions: for Plant response rating, Crabgrass, Large: 0 to 100 scale where 0 is no effect and 100 is complete control; for Crabgrass, Large plant response rating: 0 to 100 scale
Method in brief: (§2)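 Each test compound, dissolved in a non-phytotoxic solvent mixture with surfactant, was sprayed directly onto seeded soil (loam/sand blend) and, at the same moment, onto seedlings carrying one to two leaves. Around ten greenhouse days later, plants were rated visually for injury relative to untreated controls.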

wheat = assay: Test C pre-/postemergence test; format: in vivo, Triticum aestivum; conditions: for Plant response rating, Wheat: 31 g ai/ha, scale 0 to 100 (0 no effect, 100 complete control)
Method in brief: as §1

common ragweed = assay: Test C pre-/postemergence test; format: in vivo, Ambrosia elation
Method in brief: as §1

green foxtail = assay: Test C pre-/postemergence test; format: in vivo, Setaria viridis; conditions: for Plant response rating, Foxtail, Green: 31 g ai/ha, scale 0 to 100 (0 no effect, 100 complete control)
Method in brief: as §1

wild oat = assay: Test C pre-/postemergence test; format: in vivo, Avena fatua; conditions: for Plant response rating, Oat, Wild: 31 g ai/ha, scale 0 to 100 (0 no effect, 100 complete control)
Method in brief: as §1

morningglory = assay: Test A pre-/postemergence greenhouse test; format: in vivo, Ipomoea spp.; conditions: for Plant response rating, Morningglory: 0 to 100 scale where 0 is no effect and 100 is complete control; for Morningglory plant response rating: 0 to 100 scale
Method in brief: as §2

Italian ryegrass = assay: Test C pre-/postemergence test; format: in vivo, Lolium multiflorum; conditions: for Plant response rating, Ryegrass, Italian: 31 g ai/ha, scale 0 to 100 (0 no effect, 100 complete control)
Method in brief: as §1

yellow nutsedge = assay: Test C pre-/postemergence test; format: in vivo, Cyperus esculentus; conditions: for Plant response rating, Nutsedge, Yellow: 31 g ai/ha, scale 0 to 100 (0 no effect, 100 complete control)
Method in brief: as §1

corn = assay: Test C pre-/postemergence test; format: in vivo, Zea mays; conditions: for Plant response rating, Corn: 31 g ai/ha, scale 0 to 100 (0 no effect, 100 complete control)
Method in brief: as §1

redroot pigweed = assay: Test A pre-/postemergence greenhouse test; format: in vivo, Amaranthus retroflexus; conditions: for Plant response rating, Pigweed: 0 to 100 scale where 0 is no effect and 100 is complete control; for Pigweed plant response rating: 0 to 100 scale
Method in brief: as §2

blackgrass = assay: Test C pre-/postemergence test; format: in vivo, Alopecurus myosuroides; conditions: for Plant response rating, Blackgrass: 31 g ai/ha, scale 0 to 100 (0 no effect, 100 complete control)
Method in brief: as §1

eastern black nightshade = assay: Test C pre-/postemergence test; format: in vivo, Solanum ptycanthum; conditions: for Plant response rating, Nightshade: 31 g ai/ha, scale 0 to 100 (0 no effect, 100 complete control)
Method in brief: as §1

woolly cupgrass = assay: Test C pre-/postemergence test; format: in vivo, Eriochloa villosa; conditions: for Plant response rating, Cupgrass, Woolly: 31 g ai/ha, scale 0 to 100 (0 no effect, 100 complete control)
Method in brief: as §1

umbrella sedge = assay: Test C flooded paddy test; format: in vivo, Cyperus difformis; conditions: Flood
Method in brief: (§3)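 Flooded 3 cm over soil; compound into paddy water; depth kept constant. Greenhouse 13–15 d.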

[1] = test system: common (oilseed) sunflower; assay: Test C pre-/postemergence test; format: in vivo, Helianthus annuus; conditions: for Plant response rating, Sunflower: 31 g ai/ha, scale 0 to 100 (0 no effect, 100 complete control)
Method in brief: as §1

duck salad = assay: Test C flooded paddy test; format: in vivo, Heteranthera limosa; conditions: Flood
Method in brief: as §3

[2] = 62 g ai/ha, Preemergence, scale 0 to 100
[3] = 125 g ai/ha, preemergence, scale 0 (no effect) to 100 (complete control)
[4] = preemergence, 250 g ai/ha, scale 0 (no effect) to 100 (complete control)
[5] = Postemergence, 500 g ai/ha, 0 is no effect, 100 is complete control
[6] = Preemergence, 125 g ai/ha, 0 no effect, 100 complete control
[7] = 62 g ai/ha, scale 0 to 100 (0 no effect, 100 complete control)
[8] = 250 g ai/ha, scale 0 to 100, 0 no effect, 100 complete control, 13 to 15 days

## Cn1nc(C(F)(F)F)c(CS(=O)(=O)c2cccc[n+]2[O-])c1OCC(F)F [Compound 81]
Goosegrass; [2]
  Goosegrass plant response rating: 98
Goosegrass; [3]
  Goosegrass plant response rating: 100
Goosegrass; Preemergence
  Plant response rating, Goosegrass: 55
Goosegrass; [4]
  Goosegrass plant response rating: 100
crabgrass; Postemergence, 125 g ai/ha
  Plant response rating, Crabgrass, Large: 50
crabgrass; [5]
  Crabgrass, Large plant response rating: 70
crabgrass; [6]
  Crabgrass, Large plant response rating: 80
crabgrass; Preemergence, 500 g ai/ha
  Plant response rating, Crabgrass, Large: 100
wheat; [2]
  Wheat plant response rating: 5
wheat; [3]
  Wheat plant response rating: 80
wheat; Preemergence
  Plant response rating, Wheat: 0
wheat; [4]
  Wheat plant response rating: 80
Common ragweed; [2]
  Ragweed plant response rating: 80
Common ragweed; [3]
  Ragweed plant response rating: 100
Common ragweed; Preemergence, 31 g ai/ha, scale 0 to 100 (0 no effect, 100 complete control)
  Plant response rating, Ragweed: 0
Common ragweed; [4]
  Ragweed plant response rating: 100
Green foxtail; [2]
  Foxtail, Green plant response rating: 75
Green foxtail; [3]
  Foxtail, Green plant response rating: 100
Green foxtail; Preemergence
  Plant response rating, Foxtail, Green: 65
Green foxtail; [4]
  Foxtail, Green plant response rating: 100
Wild oat; [2]
  Oat, Wild plant response rating: 60
Wild oat; [3]
  Oat, Wild plant response rating: 95
Wild oat; Preemergence
  Plant response rating, Oat, Wild: 0
Wild oat; [4]
  Oat, Wild plant response rating: 95
morningglory; Postemergence, 125 g ai/ha
  Plant response rating, Morningglory: 30
morningglory; [5]
  Morningglory plant response rating: 50
morningglory; [6]
  Morningglory plant response rating: 0
morningglory; Preemergence, 500 g ai/ha
  Plant response rating, Morningglory: 80
Italian ryegrass; [2]
  Ryegrass, Italian plant response rating: 0
Italian ryegrass; [3]
  Ryegrass, Italian plant response rating: 50
Italian ryegrass; Preemergence
  Plant response rating, Ryegrass, Italian: 0
Italian ryegrass; [4]
  Ryegrass, Italian plant response rating: 100
Yellow nutsedge; [2]
  Nutsedge, Yellow plant response rating: 70
Yellow nutsedge; [3]
  Nutsedge, Yellow plant response rating: 85
Yellow nutsedge; Preemergence
  Plant response rating, Nutsedge, Yellow: 50
Yellow nutsedge; [4]
  Nutsedge, Yellow plant response rating: 98
corn; [2]
  Corn plant response rating: 20
corn; [3]
  Corn plant response rating: 100
corn; Preemergence
  Plant response rating, Corn: 0
corn; [4]
  Corn plant response rating: 100
Redroot pigweed; Postemergence, 125 g ai/ha
  Plant response rating, Pigweed: 40
Redroot pigweed; [5]
  Pigweed plant response rating: 70
Redroot pigweed; [6]
  Pigweed plant response rating: 90
Redroot pigweed; Preemergence, 500 g ai/ha
  Plant response rating, Pigweed: 100
blackgrass; Preemergence
  Plant response rating, Blackgrass: 50
Eastern black nightshade; [2]
  Nightshade plant response rating: 70
Eastern black nightshade; [3]
  Nightshade plant response rating: 90
Eastern black nightshade; Preemergence
  Plant response rating, Nightshade: 0
Eastern black nightshade; [4]
  Nightshade plant response rating: 90
Woolly cupgrass; [2]
  Cupgrass, Woolly plant response rating: 100
Woolly cupgrass; [3]
  Cupgrass, Woolly plant response rating: 100
Woolly cupgrass; Preemergence
  Plant response rating, Cupgrass, Woolly: 85
Woolly cupgrass; [4]
  Cupgrass, Woolly plant response rating: 100
Umbrella sedge; [7]
  Plant response rating, Sedge, Umbrella: 75
Umbrella sedge; [8]
  Plant response rating, Sedge, Umbrella: 95
[1]; [2]
  Sunflower plant response rating: 0
[1]; [3]
  Sunflower plant response rating: 50
[1]; Preemergence
  Plant response rating, Sunflower: 0
[1]; [4]
  Sunflower plant response rating: 75
Duck salad; [7]
  Plant response rating, Ducksalad: 65
Duck salad; [8]
  Plant response rating, Ducksalad: 75

## Cn1nc(C(F)(F)C(F)(F)F)c(C[S+]([O-])c2ccc(Cl)c[n+]2[O-])c1OCC(F)(F)F (stereo not shown) [Compound 92]
Goosegrass; [2]
  Goosegrass plant response rating: 90
Goosegrass; [3]
  Goosegrass plant response rating: 90
Goosegrass; Preemergence
  Plant response rating, Goosegrass: 90
Goosegrass; [4]
  Goosegrass plant response rating: 100
crabgrass; Postemergence, 125 g ai/ha
  Plant response rating, Crabgrass, Large: 70
crabgrass; [5]
  Crabgrass, Large plant response rating: 90
crabgrass; [6]
  Crabgrass, Large plant response rating: 80
crabgrass; Preemergence, 500 g ai/ha
  Plant response rating, Crabgrass, Large: 90
wheat; [2]
  Wheat plant response rating: 65
wheat; [3]
  Wheat plant response rating: 90
wheat; Preemergence
  Plant response rating, Wheat: 35
wheat; [4]
  Wheat plant response rating: 95
Common ragweed; [2]
  Ragweed plant response rating: 85
Common ragweed; [3]
  Ragweed plant response rating: 100
Common ragweed; [4]
  Ragweed plant response rating: 100
Green foxtail; [2]
  Foxtail, Green plant response rating: 95
Green foxtail; [3]
  Foxtail, Green plant response rating: 98
Green foxtail; Preemergence
  Plant response rating, Foxtail, Green: 90
Green foxtail; [4]
  Foxtail, Green plant response rating: 100
Wild oat; [2]
  Oat, Wild plant response rating: 85
Wild oat; [3]
  Oat, Wild plant response rating: 90
Wild oat; Preemergence
  Plant response rating, Oat, Wild: 60
Wild oat; [4]
  Oat, Wild plant response rating: 100
morningglory; Postemergence, 125 g ai/ha
  Plant response rating, Morningglory: 70
morningglory; [5]
  Morningglory plant response rating: 100
morningglory; [6]
  Morningglory plant response rating: 100
morningglory; Preemergence, 500 g ai/ha
  Plant response rating, Morningglory: 100
Italian ryegrass; [2]
  Ryegrass, Italian plant response rating: 80
Italian ryegrass; [3]
  Ryegrass, Italian plant response rating: 100
Italian ryegrass; Preemergence
  Plant response rating, Ryegrass, Italian: 60
Italian ryegrass; [4]
  Ryegrass, Italian plant response rating: 100
Yellow nutsedge; [2]
  Nutsedge, Yellow plant response rating: 90
Yellow nutsedge; [3]
  Nutsedge, Yellow plant response rating: 90
Yellow nutsedge; Preemergence
  Plant response rating, Nutsedge, Yellow: 90
Yellow nutsedge; [4]
  Nutsedge, Yellow plant response rating: 100
corn; [2]
  Corn plant response rating: 95
corn; [3]
  Corn plant response rating: 98
corn; Preemergence
  Plant response rating, Corn: 75
corn; [4]
  Corn plant response rating: 98
Redroot pigweed; Postemergence, 125 g ai/ha
  Plant response rating, Pigweed: 50
Redroot pigweed; [5]
  Pigweed plant response rating: 100
Redroot pigweed; [6]
  Pigweed plant response rating: 100
Redroot pigweed; Preemergence, 500 g ai/ha
  Plant response rating, Pigweed: 100
blackgrass; [2]
  Blackgrass plant response rating: 100
blackgrass; [3]
  Blackgrass plant response rating: 100
blackgrass; Preemergence
  Plant response rating, Blackgrass: 85
blackgrass; [4]
  Blackgrass plant response rating: 100
Eastern black nightshade; [2]
  Nightshade plant response rating: 80
Eastern black nightshade; [3]
  Nightshade plant response rating: 100
Eastern black nightshade; Preemergence
  Plant response rating, Nightshade: 60
Eastern black nightshade; [4]
  Nightshade plant response rating: 100
Woolly cupgrass; [2]
  Cupgrass, Woolly plant response rating: 90
Woolly cupgrass; [3]
  Cupgrass, Woolly plant response rating: 98
Woolly cupgrass; Preemergence
  Plant response rating, Cupgrass, Woolly: 65
Woolly cupgrass; [4]
  Cupgrass, Woolly plant response rating: 100
Umbrella sedge; [7]
  Plant response rating, Sedge, Umbrella: 20
Umbrella sedge; [8]
  Plant response rating, Sedge, Umbrella: 100
[1]; [2]
  Sunflower plant response rating: 35
[1]; [3]
  Sunflower plant response rating: 70
[1]; Preemergence
  Plant response rating, Sunflower: 0
[1]; [4]
  Sunflower plant response rating: 85
Duck salad; [7]
  Plant response rating, Ducksalad: 55
Duck salad; [8]
  Plant response rating, Ducksalad: 100
